From patent publication US5506102A (priority 1993, dated 1996)

Legend:
human androgen receptor = target: T1, human androgen receptor (Homo sapiens, UniProt P10275); test: AR transcriptional activity on MMTV-LUC, CV-1 cells, AR co-expressed with PR-A; type: cell-based; settings: AR plus PR-A, FIG. 10B
T1 sequence (P10275 1-920): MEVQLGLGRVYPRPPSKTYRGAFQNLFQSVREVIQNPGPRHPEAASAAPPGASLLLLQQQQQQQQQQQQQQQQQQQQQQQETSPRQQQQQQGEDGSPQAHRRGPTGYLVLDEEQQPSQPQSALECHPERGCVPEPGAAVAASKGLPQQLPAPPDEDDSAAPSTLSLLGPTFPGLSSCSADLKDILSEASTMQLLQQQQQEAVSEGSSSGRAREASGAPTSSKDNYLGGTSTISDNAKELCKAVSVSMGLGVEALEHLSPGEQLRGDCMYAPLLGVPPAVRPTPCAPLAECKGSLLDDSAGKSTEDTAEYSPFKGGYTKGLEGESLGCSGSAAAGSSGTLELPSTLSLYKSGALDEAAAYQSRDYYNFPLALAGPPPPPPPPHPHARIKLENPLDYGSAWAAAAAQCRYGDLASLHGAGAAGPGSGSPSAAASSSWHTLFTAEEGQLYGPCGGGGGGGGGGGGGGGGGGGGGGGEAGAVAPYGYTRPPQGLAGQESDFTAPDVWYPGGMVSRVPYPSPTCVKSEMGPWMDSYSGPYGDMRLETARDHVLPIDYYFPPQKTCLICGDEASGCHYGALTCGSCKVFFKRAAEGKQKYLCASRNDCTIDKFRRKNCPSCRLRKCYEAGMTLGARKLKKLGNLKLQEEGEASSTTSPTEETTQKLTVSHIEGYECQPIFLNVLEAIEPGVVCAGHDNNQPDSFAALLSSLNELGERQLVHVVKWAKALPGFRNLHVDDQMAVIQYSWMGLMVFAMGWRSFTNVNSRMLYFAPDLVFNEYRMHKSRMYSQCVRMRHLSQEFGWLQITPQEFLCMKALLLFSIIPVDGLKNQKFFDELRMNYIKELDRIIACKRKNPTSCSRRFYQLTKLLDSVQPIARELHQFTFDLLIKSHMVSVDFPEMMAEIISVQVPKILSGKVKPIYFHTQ
Protocol: FIGS. 10A-10B are a series of graphs showing CV-1 cells that were transiently transfected with an expression vector for the human androgen receptor (pRShAR) alone, or in combination with phPR-A together with 5 µg/ml of the MMTV-LUC reporter and 5 µg/ml of pCH110 as an internal control. […] The relative luciferase activity is calculated by dividing the normalized luciferase value at a given point by that obtained in the absence of transfected receptor or ligand. […] The data are presented as percent (%) activation, where 100% represents the maximal induction achieved by human androgen receptor at 10^ -8 M DHT. The experimental data represents mean values +/- the average deviation from the mean of quadruplicate estimations;
Cells were seeded in 12-well, 96-well or 10 cm tissue culture plates. […] 20 μg of DNA/ml of transfection buffer were used in each transfection reaction. In this mix, the concentration of the luciferase plasmids and that of the internal control plasmid pCH110 (Pharmacia, Inc.), which contains the gene for the β-galactosidase enzyme, remained constant ([…] of each plasmid DNA), while the receptor plasmid concentration varied as indicated for each experiment. […]

human estrogen receptor = test: ER transcriptional activity on MMTV-ERE-LUC, CV-1 cells, ER co-expressed with PR-B; type: cell-based; settings: 10^-7 M 17β-estradiol, FIG. 11D
Protocol: All values were normalized for transfection efficiency by simultaneous estimation of luciferase and β-galactocidase activities. The relative luciferase activity is calculated by dividing the normalized luciferase value at a given point by that obtained in the absence of transfected receptor or ligand. Data shown represent the mean +/- the average deviation from the mean of triplicate estimations.
Vegeto et al., supra. Cells were plated into 96-well tissue culture plates. The vector DNA was introduced into the CV-1 cells using calcium phosphate coprecipitation as described herein. More specifically, 20 μg of DNA/ml of transfection buffer were used in each transfection. Each transfection mix included 0.5 μg of pRST7hER, 9.5 μg of MMTV-ERE-LUC, 5 μg of pCH110, (which contains the gene for β-galactosidase) as an internal control and 5 μg of PGEM4 DNA as a carrier. […] The concentration of pXVhPR-A vector chosen was determined by performing the experiment at several different concentrations of vector, and then using that concentration that was optimal for transcriptional readout. […] The Normalized LUC activity was calculated by dividing the raw luciferase (×10^4) units for each point by the β-galactosidase activity [(OD415 nm ×10^5)/time min.] at that point.

SMILES	effect on DHT-induced AR activity in the presence of PR-A (human androgen receptor)	inhibition of ER function with hPR-B (human estrogen receptor)
CC#C[C@]1(O)CC[C@H]2[C@@H]3CCC4=CC(=O)CCC4=C3[C@@H](c3ccc(C(C)=O)cc3)C[C@@]21C [ZK112993]	increased by the introduction of PR-A	
CC(=O)[C@H]1CC[C@H]2[C@@H]3CCC4=CC(=O)CC[C@]4(C)[C@H]3CC[C@]12C [progesterone]		hPR-B will not inhibit
